Assay results reported in US10813891B2, “Method of inhibiting chronification of pain” (priority 2011, dated 2020).

Experiments:
[1] = tested on: mRNA encoding ATF3, IL-6 and BDNF; experiment: Real time qRT-PCR of mRNA in trigeminal ganglion and Sp5c of CCI-ION rats; type: in vivo, rat; settings: subchronic 10 mg/kg i.p. twice daily; ipsilateral trigeminal ganglion and Sp5c area; 4 h after last injection
Protocol: (§1) Subchronic treatment consisted of twice daily injections of tapentadol (10 mg/kg, i.p. at 10:00 am and 6:00 pm) or saline for 4 days starting on the 15th day after nerve ligation in both CCI-ION and CCI-SN rats. Animals were further injected with tapentadol (10 mg/kg i.p.) or saline at 10:00 am the following day (19th day post-surgery), and assessment of allodynia with von Frey filament tests (see below) was made at various times up to 4 hours after this injection. All rats were killed by decapitation 4 hours after the last injection for real-time qRT-PCR determinations of specific mRNAs in ganglia and central tissues (see below).
(§2) Animals used for qRT-PCR procedure were decapitated immediately after performance of von Frey filament test four hours after the last injection of tapentadol or saline for subchronic treatment conditions (see above). […]
(§3) First-stranded cDNA synthesis (from 660 ng total RNA per 20 μl reaction mixture) was carried out using SuperScript™ III Reverse Transcriptase and random primers (250 ng per reaction), as recommended by the manufacturer (Invitrogen, Cergy Pontoise, France). […] Semi-quantitative determinations were made with reference to the reporter gene encoding glyceraldehyde 3-phosphate dehydrogenase (GaPDH; Rn99999916_sl). […] Specific mRNA levels were calculated after normalizing from GaDPH mRNA in each sample (Latrémolière et al., 2008). […]

[2] = tested on: mRNA encoding ATF3, IL-6 and BDNF; experiment: Real time qRT-PCR of mRNA in DRG and lumbar spinal cord of CCI-SN rats; type: in vivo, rat; settings: subchronic 10 mg/kg i.p. twice daily; ipsilateral L4-L6 DRG and dorsal quadrant of lumbar enlargement; 4 h after last injection
Protocol: as §1, §2, §3

CC[C@@H](c1cccc(O)c1)[C@@H](C)CN(C)C [Tapentadol, (−)-(1R,2R)-3-(3-dimethylamino-1-ethyl-2-methyl-propyl)-phenol]
ATF3, IL-6 and BDNF mRNA levels [1]: had no significant effects
levels of mRNA encoding ATF3, IL-6 and BDNF, tapentadol vs saline [2]: not significantly different
